CSCCC(NC(C)=O)C(=O)O (racemic)
solubility (mole fraction)
Conditions | 283.15 K | 293.15 K | 303.15 K | 313.15 K | 323.15 K
in 1,4-dioxane | 0.0227 | 0.0428 | 0.073 | 0.108 | 0.167
in 2-butanone | 0.00843 | 0.0131 | 0.0207 | 0.0327 | 0.0568
in acetone | 0.0138 | 0.0215 | 0.037 | 0.0587 | 0.0959
in acetonitrile | 0.00292 | 0.00491 | 0.00877 | 0.016 | 0.0326
in dichloromethane | 0.00024 | 0.00036 | 0.00052 | 0.0007 | 0.00093
in ethanol | 0.0453 | 0.0626 | 0.0954 | 0.135 | 0.184
in ethyl acetate | 0.00265 | 0.00429 | 0.00641 | 0.00936 | 0.0153
in isobutanol | 0.0229 | 0.0345 | 0.0531 | 0.0779 | 0.114
in isopropanol | 0.029 | 0.0436 | 0.066 | 0.0984 | 0.14
in methanol | 0.0794 | 0.105 | 0.141 | 0.187 | 0.262
in methyl acetate | 0.00352 | 0.00525 | 0.0084 | 0.0139 | 0.0243
in n-butanol | 0.0247 | 0.0393 | 0.0591 | 0.0888 | 0.127
in n-pentanol | 0.0215 | 0.0309 | 0.0465 | 0.0684 | 0.103
in n-propanol | 0.031 | 0.0511 | 0.077 | 0.115 | 0.15
in sec-butanol | 0.0236 | 0.0375 | 0.0568 | 0.0839 | 0.121
in water | 0.00589 | 0.008 | 0.0136 | 0.0231 | 0.0543

Source: BigSolDB 2.1
